Test results as given in PMC6054532, “Dynamics of human protein kinase Aurora A linked to drug selectivity” (eLife, 2018).
Values belong to the molecule of their own block, whether it stands above or below them.

Key:
Aurora B = settings: ref Howard et al., 2009; cited from earlier work
[1] = target: T1, Biotinylated T288V Aurora A (Homo sapiens, UniProt O14965, T288V); test: Creoptix WAVE waveguide interferometry (double jump, slow-off, macroscopic KD); type: binding; settings: 25°C; complex formed after 1 hour of incubation
T1 construct: made in house
T1 sequence (O14965 122-403 T288V): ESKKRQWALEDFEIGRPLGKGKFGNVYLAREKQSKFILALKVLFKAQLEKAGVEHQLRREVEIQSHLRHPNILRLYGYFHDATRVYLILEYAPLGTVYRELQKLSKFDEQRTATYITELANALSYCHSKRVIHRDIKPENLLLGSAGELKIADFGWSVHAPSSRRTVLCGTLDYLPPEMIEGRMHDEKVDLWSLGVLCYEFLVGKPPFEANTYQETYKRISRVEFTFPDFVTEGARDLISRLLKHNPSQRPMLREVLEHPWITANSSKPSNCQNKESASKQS
Method: All chemicals were purchased from GE Healthcare, unless otherwise stated. The protocols in the WAVE control software for conditioning of the chip, immobilization of proteins and performing kinetics experiments were followed. In short, the polycarboxylate chip (PCH) was activated by injection of a 1:1 mixture with final concentrations of 200 mM N-ethyl-N’-(3-dimethylaminopropyl)carbodiimide (EDC) and 50 mM N-hydroxysuccinimide (NHS), followed by streptavidin immobilization (50 μg/mL in 10 mM sodium acetate pH 5.0). Unreacted sites on the chip were blocked with 1 M ethanolamine pH 8.0. For all activation, immobilization and passivation steps 0.2x HBS-EP was used as running buffer with a flowrate of 10 μL/min and an injection duration of 420 s on both channels 1 and 2.
All experiments were run in 50 mM HEPES, 50 mM NaCl, 20 mM MgCl2, 5 mM TCEP, 0.03 mg/mL BSA, 0.005% Tween-20, pH 7.30 as running buffer.

[2] = target: T2, dephosphorylated Aurora A (Homo sapiens, UniProt O14965); test: Stopped-flow intrinsic tryptophan fluorescence drug binding kinetics
T2 construct: made in house; host or cells: E. coli BL21(DE3)
T2 sequence (O14965 122-403): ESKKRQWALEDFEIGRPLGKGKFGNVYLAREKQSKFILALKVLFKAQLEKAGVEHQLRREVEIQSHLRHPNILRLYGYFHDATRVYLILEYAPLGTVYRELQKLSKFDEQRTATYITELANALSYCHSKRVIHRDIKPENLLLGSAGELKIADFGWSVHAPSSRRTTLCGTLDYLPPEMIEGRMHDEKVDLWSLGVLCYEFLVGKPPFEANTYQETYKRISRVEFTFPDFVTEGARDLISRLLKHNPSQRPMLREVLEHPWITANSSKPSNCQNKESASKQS
Method: (§1) The rapid kinetics were studied using a stopped-flow spectrophotometer (SX20 series from Applied Photophysics Ltd). The flow system was made anaerobic by rinsing with degassed buffer comprised of 50 mM HEPES, 50 mM NaCl, 20 mM MgCl2, 5 mM TCEP, 5% DMSO, pH 7.30 to minimize photobleaching. The stock solutions of Aurora A and all drugs were made anaerobic by degassing with ThermoVac (MicroCal) at the desired temperature. In general, a solution of 5 μM Aurora A was loaded in one syringe and quickly mixed with drug, prepared in the same buffer, in the other syringe (mixing ratio 1:10). […] For each drug concentration, at least five replicate measurements were made and these transients were averaged. Analysis was performed by fitting the individual trace to exponential equations using Pro-Data Viewer (Applied Photophysics Ltd) or with Kinesyst 3 software (TgK Scientific) and error bars denote the standard errors as obtained from the fit. KaleidaGraph version 4.5.3 (Synergy) was used for data analysis and plotting.
The approximate values of k1 and k−1 obtained from fitting to this equation are used as starting values for the global fit.

Aurora A [3] = target: T3, Aurora A (Homo sapiens, UniProt O14965); test: Global fit of binding and dissociation kinetics (KinTek Explorer) and constants calculated from microscopic rate constants; settings: for weakening of overall affinity by the DFG-in and -out equilibrium: DFG-out binders
T3 construct: made in house; host or cells: E. coli BL21(DE3)
T3 sequence (O14965 122-403): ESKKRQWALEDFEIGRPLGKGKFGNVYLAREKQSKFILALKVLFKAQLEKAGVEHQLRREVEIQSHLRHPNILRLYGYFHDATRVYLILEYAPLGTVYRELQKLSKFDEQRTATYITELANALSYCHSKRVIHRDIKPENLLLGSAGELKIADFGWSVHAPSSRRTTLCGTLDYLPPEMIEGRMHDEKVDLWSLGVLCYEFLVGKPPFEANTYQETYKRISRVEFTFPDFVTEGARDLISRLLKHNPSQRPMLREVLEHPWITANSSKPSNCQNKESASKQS
Method: as §1

Aurora C = tested on: Aurora C; design: method as in Carpinelli et al., 2007; Fraedrich et al., 2012; settings: ref Carpinelli et al., 2007; Fraedrich et al., 2012; cited from earlier work
Aurora A [4] = target: T3, Aurora A; test: mant-ATP binding kinetics by stopped-flow FRET from Trp, with global fit; settings: 10°C
Method: Inhibitor binding followed by an induced-fit step:(3) Eout+ I⇌koffkonEout⋅I⇌k−3k3Eout∗⋅I K2K3KD=K2∗K3/(K3+1)
FRET using intrinsic tryptophan fluorescence is used to monitor mant-ATP (obtained from Jena Bioscience) binding kinetics to Aurora A at 10°C. In the binding experiment or kon , increasing concentration of mant-ATP were quickly mixed to 0.5 µM Aurora A (ratio 1:10, excitation at 295 nm, emission cut-off at 395 nm). In the experiment to measure the release of mant-ATP or koff , 10 µM/10 µM Aurora A/mant-ATP complex was diluted with buffer (ratio 1:10). A significant decrease in the fluorescence intensity of Aurora A (excitation at 295 nm, emission cut-off at 395 nm) can be seen due to the mant-ATP release.

[5] = target: the molecule itself; test: crystal structure; co-crystallised: 240 μM deP Aurora A 122-403 + 1.0 mM AT9283 + 250 μM Mb; sitting drop, 18°C, 0.1 M Bis-Tris pH 5.5, 0.2 M magnesium chloride, 19% (w/v) PEG-3350

Molecule: O=C(Nc1c[nH]nc1-c1nc2ccc(CN3CCOCC3)cc2[nH]1)NC1CC1 [AT9283]
IC50 (Aurora B): 3 nM | slow dissociation, double exponential, fast phase (kobs1 slow-off) [1]: (1.1 ± 0.02) × 10^−2 s^−1 | slow dissociation, double exponential, slow phase (kobs2 slow-off) [1]: (0.1 ± 0.01) × 10^−2 s^−1

k-2 (intercept of kobs,Binding plot) ([2]; 25°C): 4.6 ± 3 s⁻¹ | kobs of slow phase, plateau (induced-fit step, k3+k-3) ([2]; 25°C): approximately 16 ± 2 s^−1 | weakening of overall affinity by the DFG-in and -out equilibrium (Aurora A [3]): 1.6 fold | tighter binding resulting from the conformational change after drug binding (Aurora A [3]; induced-fit step): four orders of magnitude
Molecule: CO[C@@H](C(=O)N1Cc2n[nH]c(NC(=O)c3ccc(N4CCN(C)CC4)cc3)c2C1)c1ccccc1 [Danusertib]
IC50 (Aurora C): 61 nM

k2, bimolecular rate constant (slope of kobs,Binding vs concentration, fast phase) ([2]; 10°C): 1.1e+06 ± 300000 M⁻¹ s⁻¹ | k-2, dissociation from intercept of binding plot (kdiss) ([2]; 10°C): 31 ± 2 s⁻¹ | weakening of overall affinity by the DFG-in and -out equilibrium (Aurora A [3]): 1.6 fold
Molecule: Cc1ccc(NC(=O)c2ccc(CN3CCN(C)CC3)cc2)cc1Nc1nccc(-c2cccnc2)n1 [Gleevec]

k2 (plot of kobs vs concentration, fast phase) (Aurora A [4]): 800000 ± 200000 M⁻¹ s⁻¹ | k-2 (plot of kobs vs concentration, fast phase) (Aurora A [4]): 50 ± 8 s⁻¹ | kobs of slow phase, plateau (k3+k-3) (Aurora A [4]): around 21 ± 1 s^−1
Molecule: mant-ATP

B1: dephosphorylated Aurora A (122-403) (domain or fragment, human, UniProt O14965 122-403, looked up)
chain: ESKKRQWALEDFEIGRPLGKGKFGNVYLAREKQSKFILALKVLFKAQLEKAGVEHQLRREVEIQSHLRHPNILRLYGYFHDATRVYLILEYAPLGTVYRELQKLSKFDEQRTATYITELANALSYCHSKRVIHRDIKPENLLLGSAGELKIADFGWSVHAPSSRRTTLCGTLDYLPPEMIEGRMHDEKVDLWSLGVLCYEFLVGKPPFEANTYQETYKRISRVEFTFPDFVTEGARDLISRLLKHNPSQRPMLREVLEHPWITANSSKPSNCQNKESASKQS
notes: human Ser/Thr kinase Aurora A, residues 122-403, dephosphorylated (confirmed by mass spectrometry); E. coli BL21(DE3) is named only for the isotope-labelled samples; also called deP Aurora A^122-403; AurA; source: expressed and purified as described before (Zorba et al., 2014)
binding result [5]: binds
